Columns and labels:
tMCAO Trpm2+/+ mice = test: tMCAO ischemia model, infarct volume by TTC staining, Trpm2+/+ mice; type: in vivo, mouse; settings: for infarct volume: 24 h after tMCAO
tMCAO Trpm2−/− mice = test: tMCAO ischemia model, infarct volume by TTC staining, Trpm2-/- mice; type: in vivo, mouse; settings: 24 h after tMCAO
[1] = system: layer 5 cortical pyramidal neurons from adult Trpm2+/+ mice; test: Whole-cell current-clamp, intrinsic excitability in brain slices, Trpm2+/+; type: cell-based, mouse
[2] = system: layer 5 cortical pyramidal neurons from adult Trpm2−/− mice; test: Whole-cell current-clamp, intrinsic excitability in brain slices, Trpm2-/-; type: cell-based, mouse
[3] = system: cortical pyramidal neurons from D1066A KI mice; test: Whole-cell current-clamp, intrinsic excitability in brain slices, D1066A KI; type: cell-based, mouse; settings: prolonged perfusion time
[4] = biological target: T1, human TRPM2 (hTRPM2) channel (Homo sapiens, UniProt O94759); test: Whole-cell patch-clamp of TRPM2 currents (voltage ramps) in HEK-hTRPM2 cells; type: cell-based
T1 construct: expressed in transfected cells; host or cells: HEK293 cells with tetracycline-inducible expression of hTRPM2 (HEK-hTRPM2)
Experimental: (§1) Human embryonic kidney 293 (HEK293) cells with tetracycline-inducible expression of human TRPM2 channel (hTRPM2) were cultured in a mixed medium containing DMEM/ F-12 (Gibco, USA) and 10% fetal bovine serum (Gibco, USA) as well as blasticidin (50 μg/ml, Invivogen, USA) and zeocin (0.4 mg/ml, Invivogen, USA). The expression of hTRPM2 was induced by substituting blasticin and zeocin for tetracycline (1 μg/ml, Sigma, USA) 24-48 hours before use. TRPM2 channel mutants were transiently expressed in HEK293T cells by transfection with using Lipofectamine 3000. Briefly, HEK293T cells were transiently transfected with cDNAs encoding the mutant hTRPM2 channel. The cDNA for GFP was co-transfected as a marker for identification of the transfected cells for electrophysiological experiments 16-24 hours after transfection. All the cells were seeded on 96-well coverslips (3 x 3 mm, WHB) and cultured at 37 °C under a humidified atmosphere containing 5% CO2.
Coronal cortical slices were transferred into the recording chamber and continuously perfused at room temperature with ACSF oxygenated with 95% O2 and 5% CO2. Cortical pyramidal neurons were visualized by an upright microscope (Carl Zeiss) equipped with a CCD monochrome video camera (IR-1000, DAGE-MTI) and identified by their localization in Layer V. Electrophysiology data were sampled (50 kHz) and lowpass filtered (5kHz four-pole Bessel filter) by a MultiClamp 700B dual channel amplifier (Molecular Devices). The patch electrodes were pulled from borosilicate capillary glass (1.5 mm outer diameter; 0.86 mm inner diameter; World Precision Instruments, USA) with a horizontal multi-step micropipette puller (Model, P-1000, Sutter Instrument). […] After forming >1 GΩ resistance seal in cell-attached configuration, we broke the patch membrane and kept the neurons at -64 mV and then performed whole-cell current-clamp recordings. Cells requiring holding current > -150 pA at -60 mV were discarded. The resting membrane potential (Vrest) was tested in I = 0 configuration. Intrinsic excitability was tested by 500 ms long current steps between -200 and +400 pA with 50-pA increments in the presence of blockers for AMPA, NMDA, and GABA receptors (APV, 50 μM; NBQX, 10 μM; bicuculine 10 μM, strychnine 1 μM). Only one recording was conducted per brain slice. For whole-cell or single channel recordings from transfected HEK-293T cells, the coverslips were placed in a culture dish (35 × 35 mm, Sorfa) containing HEPES based extracellular solution (ECS) and recorded by patch-clamp technique. Cells were visualized by using the phase-contrast mode of an inverted microscope (TE-2000U; Nikon, Japan) and the patch pipette was positioned on the cells using a motorized micromanipulator (MP-225; Sutter) under the microscope. The transfected cells were voltage-clamped at 0 mV and subjected to voltage ramps from -100 mV to +100 mV (500 ms duration) every 5 s. The basal ramp current (i.e., the trace when the leak current is stable after membrane rupture) before channel activation were used for leak subtraction of all subsequent ramp currents. Each coverslip was recorded only once with different drug exposures. Single-channel recordings were carried out under outside-out configuration, using pipettes with resistance of 6-8 MΩ. The excised patches were voltage-clamped from -80 mV to +80 mV (in 20 mV increasement) to generate the current-voltage (I-V) relationship of single channel currents from which their main conductance was calculated from the slope by linear regression of the mean current amplitude at different potentials. Single-channel recordings of the cortical neurons were performed by adding 4-AP, TEA-Cl, CsCl2 and TTX to block sodium channel, potassium channel and calcium channel.
The cutting solution for brain slices contained the following (in mM): 87 NaCl, 75 sucrose, 2.5 KCl, 10 glucose, 1.25 NaH2PO4, 2 Na-pyruvate, 3 myo-inositol, 0.5 ascorbic acid, 26 NaHCO3,7 MgCl2, and 0.1 CaCl2 (pH 7.4; 290-320 mOsm).

[5] = biological target: T1, human TRPM2 (hTRPM2) channel; test: Single-channel outside-out recordings from HEK-hTRPM2 cells; type: cell-based
Experimental: as §1
Coronal cortical slices were transferred into the recording chamber and continuously perfused at room temperature with ACSF oxygenated with 95% O2 and 5% CO2. Cortical pyramidal neurons were visualized by an upright microscope (Carl Zeiss) equipped with a CCD monochrome video camera (IR-1000, DAGE-MTI) and identified by their localization in Layer V. Electrophysiology data were sampled (50 kHz) and lowpass filtered (5kHz four-pole Bessel filter) by a MultiClamp 700B dual channel amplifier (Molecular Devices). The patch electrodes were pulled from borosilicate capillary glass (1.5 mm outer diameter; 0.86 mm inner diameter; World Precision Instruments, USA) with a horizontal multi-step micropipette puller (Model, P-1000, Sutter Instrument). […] After forming >1 GΩ resistance seal in cell-attached configuration, we broke the patch membrane and kept the neurons at -64 mV and then performed whole-cell current-clamp recordings. Cells requiring holding current > -150 pA at -60 mV were discarded. The resting membrane potential (Vrest) was tested in I = 0 configuration. […] For whole-cell or single channel recordings from transfected HEK-293T cells, the coverslips were placed in a culture dish (35 × 35 mm, Sorfa) containing HEPES based extracellular solution (ECS) and recorded by patch-clamp technique. […] Each coverslip was recorded only once with different drug exposures. […] The excised patches were voltage-clamped from -80 mV to +80 mV (in 20 mV increasement) to generate the current-voltage (I-V) relationship of single channel currents from which their main conductance was calculated from the slope by linear regression of the mean current amplitude at different potentials. […]

hTRPM2 R302A/R358A = biological target: T2, hTRPM2 R302A/R358A (Homo sapiens, UniProt O94759, R302A/R358A); test: Whole-cell patch-clamp, N-terminal ADPR-binding site mutant; type: cell-based; settings: bilirubin
T2 construct: expressed in transfected cells; host or cells: HEK293T cells, transient transfection (Lipofectamine 3000), GFP cDNA co-transfected as a separate marker
Experimental: as §1, with “All the cells were seeded on 96-well coverslips (3 x 3 mm, WHB) and cultured at 37 °C under a humidified atmosphere containing 5% CO2.” left out
(§2) Coronal cortical slices were transferred into the recording chamber and continuously perfused at room temperature with ACSF oxygenated with 95% O2 and 5% CO2. […] For whole-cell or single channel recordings from transfected HEK-293T cells, the coverslips were placed in a culture dish (35 × 35 mm, Sorfa) containing HEPES based extracellular solution (ECS) and recorded by patch-clamp technique. […] Each coverslip was recorded only once with different drug exposures. […]

hTRPM2 R1433A = biological target: T3, hTRPM2 R1433A (Homo sapiens, UniProt O94759, R1433A); test: Whole-cell patch-clamp, C-terminal NUDT9-H domain mutant; type: cell-based; settings: bilirubin
T3 construct: expressed in transfected cells; host or cells: HEK293T cells, transient transfection, GFP cDNA co-transfected as a separate marker
Experimental: as §1, with “All the cells were seeded on 96-well coverslips (3 x 3 mm, WHB) and cultured at 37 °C under a humidified atmosphere containing 5% CO2.” left out
as §2

TRPM2-ΔN/ΔC = biological target: T4, TRPM2-ΔN/ΔC (Homo sapiens, UniProt O94759); test: Whole-cell patch-clamp, truncation mutant; type: cell-based; settings: bilirubin
T4 construct: expressed in transfected cells; host or cells: HEK293T cells, transient transfection, GFP cDNA co-transfected as a separate marker
Experimental: as §1, with “All the cells were seeded on 96-well coverslips (3 x 3 mm, WHB) and cultured at 37 °C under a humidified atmosphere containing 5% CO2.” left out
as §2

[6] = biological target: T5, hTRPM2 K928A/D1069A double mutant (Homo sapiens, UniProt O94759, D1069A/K928A); test: Whole-cell patch-clamp, bilirubin-binding cavity double mutant; type: cell-based; settings: 9 μM extracellular
T5 construct: expressed in transfected cells; host or cells: HEK293T cells, transient transfection, GFP cDNA co-transfected as a separate marker
Experimental: as §1, with “All the cells were seeded on 96-well coverslips (3 x 3 mm, WHB) and cultured at 37 °C under a humidified atmosphere containing 5% CO2.” left out
as §2

[7] = system: hTRPM2 pore mutants (P983A, D987A, A1046C, N1049C); test: Whole-cell patch-clamp, pore mutants; type: cell-based, human; settings: bilirubin
[8] = system: hTRPM2 Ca2+ binding site mutants; test: Whole-cell patch-clamp, Ca2+ binding site mutants; type: cell-based, human; settings: mutations disabling binding sites for Ca2+
[9] = Serum and CSF TB / UCB measurement after bilirubin injection and tMCAO; type: in vivo, mouse
Experimental: Trpm2^+/+, Trpm2^-/- and D1066A C57BL/6 mice were anesthetized by intraperitoneal injection of pentobarbital (55 mg/kg) 24 hours before tMCAO operation, and then fixed in the stereotactic setup (RWD Life Science). The skin above the skull from the base of the neck up to in between the eyes was cut open. A hole directly above the right ventricle was made with a grinding drill to allow insertion of the micro syringe into the lateral ventricle (coordinates: 1.1 mm laterally to the right and 0.5 mm posterior of the bregma, 2.5 mm deep). CSF was collected by using the micro injection pump (speed: 0.2 μl/min), after which the syringe was withdrawn, and the skin was sutured. The mice were removed from the stereotactic setup and 50 μl blood was taken through the orbital venous plexus. Mice were then placed on 37 °C heating blanket till they regained consciousness and returned to the cage. 1 or 24 hours after tMCAO, animals were anesthetized using a 2% isoflurane-oxygen mixture. CSF and blood were collected in the same way before sacrifice. All samples were centrifuged at 3000 r/min. Total bilirubin concentration of supernatants was measured with the Bilirubin Reagent Kit (Sigma). Samples were transferred to a 96-plates and mixed with reaction solution before measurements of their absorbance were made at 530 nm 10 minutes later. UCB concentration was measured with UnaG, a bilirubin-inducible fluorescent protein from Japanese eel muscle. For standard calibration curve of fluorescence intensity, a 100 μl reaction mixture containing 50 μl UnaG solution (1 μM) and 50 μl artificial bilirubin solution with concentration gradient (1.4278 μM, 0.7139 μM, 0.3573 μM, 0.1785 μM, 0.0893 μM and 0 μM) was prepared. After 10 minutes of reaction, the fluorescence intensity was detected by microplate reader (Synergy H1M, Bio Tek) with fluorescence filters for excitation and emission wavelengths of 485 and 528 nm, respectively. Serum and CSF samples were diluted 20-fold with PBS and fluorescence intensity was measured. The UCB levels were extrapolated from the standard curve.

[10] = system: cortical neurons in adult Trpm2+/+ brain slices; settings: bilirubin, 1 h of incubation, n = 6

T1 sequence (O94759 whole entry): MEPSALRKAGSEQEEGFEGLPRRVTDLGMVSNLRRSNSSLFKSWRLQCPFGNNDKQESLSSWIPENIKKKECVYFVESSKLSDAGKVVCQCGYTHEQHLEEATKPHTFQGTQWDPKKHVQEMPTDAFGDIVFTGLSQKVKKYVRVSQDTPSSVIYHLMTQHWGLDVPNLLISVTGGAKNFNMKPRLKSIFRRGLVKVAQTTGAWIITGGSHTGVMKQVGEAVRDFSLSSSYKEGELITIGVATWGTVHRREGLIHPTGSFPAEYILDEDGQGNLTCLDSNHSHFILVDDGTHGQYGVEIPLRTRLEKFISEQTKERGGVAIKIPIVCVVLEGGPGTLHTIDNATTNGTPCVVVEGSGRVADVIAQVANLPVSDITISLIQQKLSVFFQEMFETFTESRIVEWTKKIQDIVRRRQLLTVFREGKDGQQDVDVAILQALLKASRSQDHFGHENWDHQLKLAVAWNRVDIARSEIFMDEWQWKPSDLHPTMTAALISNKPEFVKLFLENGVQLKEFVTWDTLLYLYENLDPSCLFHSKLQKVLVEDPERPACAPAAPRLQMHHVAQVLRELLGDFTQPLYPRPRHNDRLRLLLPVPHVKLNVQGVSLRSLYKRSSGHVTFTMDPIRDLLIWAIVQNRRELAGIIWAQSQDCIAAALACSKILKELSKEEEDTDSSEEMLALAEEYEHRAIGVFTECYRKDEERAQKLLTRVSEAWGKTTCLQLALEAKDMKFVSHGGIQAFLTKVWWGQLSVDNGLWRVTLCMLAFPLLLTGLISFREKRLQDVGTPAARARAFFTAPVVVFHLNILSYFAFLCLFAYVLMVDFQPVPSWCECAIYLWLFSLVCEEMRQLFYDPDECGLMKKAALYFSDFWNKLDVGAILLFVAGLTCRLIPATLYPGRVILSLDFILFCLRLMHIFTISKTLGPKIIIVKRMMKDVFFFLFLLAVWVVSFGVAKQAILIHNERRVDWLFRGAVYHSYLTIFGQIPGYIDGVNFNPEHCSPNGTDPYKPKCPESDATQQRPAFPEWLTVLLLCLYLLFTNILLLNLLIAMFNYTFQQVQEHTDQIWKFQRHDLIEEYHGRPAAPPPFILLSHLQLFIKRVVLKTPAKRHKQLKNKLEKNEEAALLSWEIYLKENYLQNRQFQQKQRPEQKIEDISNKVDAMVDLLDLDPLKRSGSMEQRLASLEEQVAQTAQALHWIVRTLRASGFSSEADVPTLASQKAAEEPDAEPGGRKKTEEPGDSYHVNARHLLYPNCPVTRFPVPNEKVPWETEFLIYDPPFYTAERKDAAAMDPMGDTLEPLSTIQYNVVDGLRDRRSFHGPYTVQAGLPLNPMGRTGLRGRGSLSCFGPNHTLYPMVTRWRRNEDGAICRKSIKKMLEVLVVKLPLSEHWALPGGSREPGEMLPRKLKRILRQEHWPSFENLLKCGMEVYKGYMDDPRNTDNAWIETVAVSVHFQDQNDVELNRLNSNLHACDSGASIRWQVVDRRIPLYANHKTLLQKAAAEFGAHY
T5 sequence (O94759 whole entry K928A/D1069A): as the sequence (O94759 whole entry) above, with K928A, D1069A counted along it
T3 sequence (O94759 whole entry R1433A): as the sequence (O94759 whole entry) above, with R1433A counted along it
T2 sequence (O94759 whole entry R302A/R358A): as the sequence (O94759 whole entry) above, with R302A, R358A counted along it
T4 sequence (O94759 1-1449 isoform O94759-2): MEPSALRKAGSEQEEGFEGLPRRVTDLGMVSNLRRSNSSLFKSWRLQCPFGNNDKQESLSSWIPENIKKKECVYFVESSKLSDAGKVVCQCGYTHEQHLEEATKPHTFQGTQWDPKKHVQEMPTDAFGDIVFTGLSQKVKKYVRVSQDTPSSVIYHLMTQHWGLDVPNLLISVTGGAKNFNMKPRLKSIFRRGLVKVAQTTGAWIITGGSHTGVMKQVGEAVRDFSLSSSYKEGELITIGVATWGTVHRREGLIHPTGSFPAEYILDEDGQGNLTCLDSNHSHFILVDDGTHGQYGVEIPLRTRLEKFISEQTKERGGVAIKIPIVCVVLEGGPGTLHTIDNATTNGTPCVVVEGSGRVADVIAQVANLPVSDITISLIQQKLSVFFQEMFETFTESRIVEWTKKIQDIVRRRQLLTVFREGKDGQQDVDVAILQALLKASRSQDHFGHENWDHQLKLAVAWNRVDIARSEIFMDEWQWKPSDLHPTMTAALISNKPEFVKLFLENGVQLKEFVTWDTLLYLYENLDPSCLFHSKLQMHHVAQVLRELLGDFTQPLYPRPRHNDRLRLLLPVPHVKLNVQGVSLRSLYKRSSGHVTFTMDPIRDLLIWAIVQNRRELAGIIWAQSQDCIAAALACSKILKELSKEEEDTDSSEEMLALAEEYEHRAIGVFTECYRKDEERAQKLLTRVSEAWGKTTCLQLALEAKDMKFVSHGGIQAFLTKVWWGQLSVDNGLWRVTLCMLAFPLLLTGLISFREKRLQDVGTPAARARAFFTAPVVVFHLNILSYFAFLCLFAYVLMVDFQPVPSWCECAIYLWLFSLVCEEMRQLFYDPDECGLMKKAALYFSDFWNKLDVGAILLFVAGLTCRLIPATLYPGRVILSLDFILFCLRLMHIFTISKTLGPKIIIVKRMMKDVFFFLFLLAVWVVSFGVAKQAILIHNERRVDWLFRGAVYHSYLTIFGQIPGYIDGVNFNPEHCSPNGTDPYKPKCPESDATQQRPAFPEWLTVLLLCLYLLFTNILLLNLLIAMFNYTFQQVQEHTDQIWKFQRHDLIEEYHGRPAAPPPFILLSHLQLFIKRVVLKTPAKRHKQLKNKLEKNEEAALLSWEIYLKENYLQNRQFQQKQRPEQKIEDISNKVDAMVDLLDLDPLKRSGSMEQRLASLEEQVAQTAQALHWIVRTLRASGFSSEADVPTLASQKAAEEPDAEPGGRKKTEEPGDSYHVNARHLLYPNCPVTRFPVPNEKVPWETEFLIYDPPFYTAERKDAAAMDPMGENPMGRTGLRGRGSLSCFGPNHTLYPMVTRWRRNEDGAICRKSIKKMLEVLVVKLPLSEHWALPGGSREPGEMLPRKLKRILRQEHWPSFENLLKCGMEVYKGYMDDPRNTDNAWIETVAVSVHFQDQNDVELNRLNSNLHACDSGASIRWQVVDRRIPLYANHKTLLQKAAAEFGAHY

## C=CC1=C(C)/C(=C/c2[nH]c(Cc3[nH]c(/C=C4\NC(=O)C(C)=C4C=C)c(C)c3CCC(=O)O)c(CCC(=O)O)c2C)NC1=O [bilirubin, Bilirubin]
tMCAO Trpm2+/+ mice; Trpm2+/+ mice, bilirubin 50 μg/g i.p. 30 min prior to 30 min tMCAO, n = 14
  infarct volume: 55.31% ± 3.68%
tMCAO Trpm2+/+ mice; day 7 after tMCAO
  severity of brain damage, Bil group vs Ctrl group: significantly higher
tMCAO Trpm2+/+ mice; female Trpm2+/+ mice, n = 4
  infarct volume: 49.56 ± 7.40%
tMCAO Trpm2+/+ mice; male Trpm2+/+ mice, n = 10
  infarct volume: 57.61 ± 4.24%
tMCAO Trpm2−/− mice; Trpm2−/− mice, bilirubin 50 μg/g i.p. 30 min prior to 30 min tMCAO, n = 15
  infarct volume: 25.69% ± 4.46%
tMCAO Trpm2−/− mice; female Trpm2−/− mice, n = 5
  infarct volume: 30.63 ± 8.71%
tMCAO Trpm2−/− mice; male Trpm2−/− mice, n = 10
  infarct volume: 23.22 ± 5.25%
[1]; Trpm2+/+ slices, bilirubin for 5 and 20 min, synaptic blockers present
  excitability of cortical neurons: significantly increased
[1]; Trpm2+/+, 20 min after bilirubin application, 2.5 nA current in 0.3 ms
  spike amplitude: significantly attenuated
[2]; Trpm2−/− slices, bilirubin for 5 and 20 min, synaptic blockers present
  excitability of cortical neurons: absent
[2]; Trpm2−/−, 20 min after bilirubin application, 2.5 nA current in 0.3 ms
  spike amplitude: significantly attenuated
[3]
  hyperexcitability in cortical pyramidal neurons: did not induce the hyperexcitability
[4]; bilirubin 9 μM, −100 to +100 mV, control solution
  magnitude of the TRPM2 currents evoked by voltage ramps: increased
[4]; bilirubin in the presence of PJ-34 (10 μM)
  activation of TRPM2 currents: remained effective
[4]; bilirubin, intracellular ADPR 5 μM (subthreshold)
  TRPM2 currents: increased TRPM2 currents
[4]; bilirubin, intracellular ADPR 500 μM (saturated)
  TRPM2 currents: failed to do so
[4]; bilirubin, intracellular BAPTA 30 mM replacing EGTA
  activation of the TRPM2 channel: remained capable of activating
[4]; concentration-response fit with the Hill equation, n = 4
  Hillslope: 1.0
[4]; concentration-response fit with the Hill equation, n = 4, read-out: EC50 for evoked TRPM2 currents
  EC50: 1920 nM
[5]; bilirubin 300 nM, at −40 mV, outside-out
  single-channel currents: −2.02 ± 0.05 pA
[5]; bilirubin perfusion, n = 12
  opening probability (Po): significantly increased
[5]; bilirubin-driven current-voltage relationship, −80 to +80 mV, n = 4–7
  slope conductance (single-channel): 76.29 ± 7.85 pS
hTRPM2 R302A/R358A
  activation of mutant TRPM2 currents: remained responsive
hTRPM2 R1433A
  activation of mutant TRPM2 currents: remained responsive
TRPM2-ΔN/ΔC
  activation of mutant TRPM2 currents: eliminated the activation of the TRPM2 channel by ADPR but not by bilirubin
[6]
  activation of mutant TRPM2 currents: completely lost its ability to activate
[7]
  activation of mutant TRPM2 currents: effectively activated
[8]
  activation of TRPM2 currents by bilirubin: did not prevent the activation
[9]; D1066A KI mice, 24 h after tMCAO, n = 9
  serum and CSF UCB concentration, Bil group vs Ctrl group: comparable
[9]; Trpm2+/+ mice, 24 h after tMCAO
  UCB concentration in serum and CSF, Bil group vs Ctrl group: much higher
[9]; Trpm2−/− mice, 24 h after tMCAO
  level of UCB, Bil group vs Ctrl group: did not change
[9]; mice injected with bilirubin 50 μg/g i.p., after tMCAO
  TB levels in serum and CSF vs saline: markedly higher
[10]
  mortality of cortical neurons: 60.84% ± 2.13%

## O=C(O)c1ccccc1Nc1cccc(C(F)(F)F)c1 [FFA, flufenamic acid]
[5]; FFA co-application, n = 12
  bilirubin-increased opening probability (Po): reversed
